Source: US11209440B2, “T cell balance gene expression, compositions of matters and methods of use thereof” (THE BROAD INSTITUTE, INC., priority 2014, dated 2021)
Entries after “also recorded” stand apart in the source; their conditions may differ. Each block holds one molecule with its values, some of them ahead of it.

Tests used:
[1] = molecular target: T1, Rorγt (Mus musculus, UniProt P51450); assay: Rorγt ChIP-PCR in Th17 cells with added SFA or PUFA; type: cell-based; parameters: endogenous in cells; host or cells: wild-type mouse Th17 cells differentiated in vitro from naïve CD4+ T cells; conditions: WT Th17 cells
T1 sequence (P51450 1-495 isoform P51450-2): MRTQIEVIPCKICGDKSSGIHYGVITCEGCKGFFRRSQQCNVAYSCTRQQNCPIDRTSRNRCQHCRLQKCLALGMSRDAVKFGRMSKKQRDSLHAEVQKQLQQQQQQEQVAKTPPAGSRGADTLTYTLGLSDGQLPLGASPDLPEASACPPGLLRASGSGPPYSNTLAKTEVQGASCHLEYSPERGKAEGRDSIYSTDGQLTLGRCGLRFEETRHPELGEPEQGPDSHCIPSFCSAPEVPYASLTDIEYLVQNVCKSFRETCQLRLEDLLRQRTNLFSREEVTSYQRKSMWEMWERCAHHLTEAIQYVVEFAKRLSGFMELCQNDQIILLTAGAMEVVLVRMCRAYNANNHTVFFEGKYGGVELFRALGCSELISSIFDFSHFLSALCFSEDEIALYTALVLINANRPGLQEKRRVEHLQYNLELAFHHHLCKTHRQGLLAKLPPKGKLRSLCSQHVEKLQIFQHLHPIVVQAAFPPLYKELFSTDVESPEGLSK
Method: (§1) Lipidome analysis of Th17 cells. (A) WT and CD5L^−/− naïve T cells were differentiated as in FIG. 46B in the presence of cytokines as indicated. Cells and supernatant were harvested at 96 hours and subjected to MS/LC. Three independent mouse experiments were performed. […] (B) Expression of representative metabolites including a cholesterol ester and a PUFA-containing TAG species. FIG. 48 C, D, E, F-J show as follows: (C) Metabolomic analysis of independent mouse experiments where T cells were differentiated under various cytokine conditions as indicated and harvested at 48 h and 96 h. (D,E) Rorγt ChIP from Th17 cells differentiated as described in A. under various conditions as indicated. F-K. Dual luciferase reporter assay was performed in EL4 cells stably transfected with a control vector or Rorγt vector. (F, G) CD5L retroviral vector was cotransfected in F and G at 0, 25, 50 and 100 ng/well. […] All ChIP and luciferase assay are representative of at least 3 independent experiments.

[2] = system: Th17 cells; assay: FACS of IL-17 and IL-23R.GFP in Th17 cells treated with free fatty acids; type: cell-based, mouse
Method: (§2) (A) Naïve T cells were sorted from either WT or IL-23RGFP reporter mice, activated with plate-bound anti-CD3/anti-CD28 and differentiated with TGFβ1+IL-6 for 48 hours. […] (B) Cells from WT and Rorc^−/− mice were sorted, differentiated and treated with FFA as in A. Cells were harvested for RNA purification and qPCR. (C) Naïve WT and CD5L^−/− T cells were differentiated as in A. Cells were then lifted, washed and replated in fresh media with no addition of cytokines and in the presence of control or 5 uM of arachidonic acid (PUFA). Cytokine profile of T cells were measured after PMA/ionomycin restimulation. […] Another 48 hours later, cells were harvested for nanostring analysis (D) or qPCR (E).

[3] = system: Th17 cells; assay: qPCR and Nanostring signature analysis of Th17 cells treated with free fatty acids; type: cell-based, mouse
Method: as §2
Next, the contribution of lipid saturation to Th17 cell pathogenicity was studied.

[4] = molecular target: T1, Rorγt; assay: Dual luciferase reporter assay in EL4 cells stably transfected with Rorγt vector; type: cell-based; parameters: expressed in transfected cells; host or cells: EL4 cells, stably transfected; conditions: for Rorγt driven Il17a transcription: 10 μM arachidonic acid
Method: as §1

[5] = system: Cd5l expression; assay: Cd5l expression by qPCR in TGFβ1+IL-6 Th17 cells expanded with or without IL-23; type: cell-based, mouse; conditions: naïve T cells differentiated with TGFβ1+IL-6 for 48 h, then IL-23 vs PBS in fresh media
Source text: FIG. 45A-45H show Single-cell RNA-seq identifies Cd5l as a novel regulator associated with Th17 cell pathogenicity and expressed only by non-pathogenic Th17 cells. Single-cells were sorted from in-vitro Th17 cells differentiated with TGFβ1+IL-6 (A,B), IL-1β+IL-6+IL-23 (C), TGFβ3+IL-6 (D) and in-vivo Th17 cells from CNS of mice at the peak of EAE (score=3) (D). IL-17A.GFP^+ CD4^+ T cells were sorted in all panels in D. (A) Correlation of CD5L expression in non-pathogenic Th17 cells with the pathogenic signature (Lee, Awasthi et al.). (B) Principal Component Analysis of CD5L expression where the direction of PC1 correlates with pathogenicity. (C, D) Histogram of CD5L expression in single-cell from conditions as indicated. CD5L expression in vitro is validated by qPCR (E, F) and flow cytometry (G). […] CD5L expression was measured by qPCR at 48 h (E) and 72 h (F) and intracellularly by flow cytometry at 48 h (G); (F) At 48 h, cells were lifted from plate, washed and replated in fresh media with IL-23 or PBS and cultured for additional 24 h. […] Cd5l and Il17a expression are measured by qPCR. […] I. IL-17^+ (GFP^+) and IL-17^− (GFP^−) CD4^+ cells were sorted from the gut of naïve mice and the number of RNA transcripts measured by nanostring and normalized based on four house-keeping genes. […]

Il10 transactivation ([4]; added to the agonist ligand): enhanced
Rorγt-mediated Il23r transactivation ([4]; added to the agonist ligand): almost completely inhibited
Rorγt driven Il17a transcription ([4]; cells expressing CD5L): but not in those expressing CD5L
Rorγt driven Il17a transcription ([4]; control cells): decreased
Molecule: CCCCC/C=C\C/C=C\C/C=C\C/C=C\CCCC(=O)O [PUFA, arachidonic acid]
Rorγt binding to the Il10 CNS-9 region [1]: significantly increased; also recorded: enhanced
percentage of IL-17+ CD4+ T cells ([2]; CD5L−/− Th17 cells, non-pathogenic condition, 5 uM arachidonic acid): reduced percentage
percentage of IL-23R.GFP+ CD4 T cells ([2]; IL-23RGFP reporter Th17 (TGFβ1+IL-6) expanded with IL-23, 10 uM arachidonic acid or 20 uM palmitic acid, 48 h, FACS): suppressed
percentage of IL-17+ CD4 T cells ([2]; WT Th17 (TGFβ1+IL-6) expanded with IL-23, 10 uM arachidonic acid or 20 uM palmitic acid, 48 h, FACS): suppressed
316 gene signature of Th17 cell differentiation and function ([3]; CD5L−/− Th17 cells (TGFβ1+IL-6), 5 uM arachidonic acid, Nanostring nCounter): resemble WT non-pathogenic Th17 cells
Il22 expression ([3]; qPCR): increased
expression of key pathogenicity signature genes Il10, Il23r, Ccl5, Csf2 and Lag3 ([3]; qPCR): reciprocally regulated
effect on Il17 and Il23r expression in Rorγt−/− Th17 cells ([3]; qPCR, Rorγt−/− cells): abolished

B1: IL-23: proinflammatory cytokine; recombinant mouse IL-23 (protein, UniProt Q9EQ14 22-196; P43432 23-335, looked up)
Interleukin-23 subunit alpha: VPRSSSPDWAQCQQLSRNLCMLAWNAHAPAGHMNLLREEEDEETKNNVPRIQCEDGCDPQGLKDNSQFCLQRIRQGLAFYKHLLDSDIFKGEPALLPDSPMEQLHTSLLGLSQLLQPEDHPRETQQMPSLSSSQQWQRPLLRSKILRSLQAFLAIAARVFAHGAATLTEPLVPTA
Interleukin-12 subunit beta: MWELEKDVYVVEVDWTPDAPGETVNLTCDTPEEDDITWTSDQRHGVIGSGKTLTITVKEFLDAGQYTCHKGGETLSHSHLLLHKKENGIWSTEILKNFKNKTFLKCEAPNYSGRFTCSWLVQRNMDLKFNIKSSSSSPDSRAVTCGMASLSAEKVTLDQRDYEKYSVSCQEDVTCPTAEETLPIELALEARQQNKYENYSTSFFIRDIIKPDPPKNLQMKPLKNSQVEVSWEYPDSWSTPHSYFSLKFFVRIQRKKEKMKETEEGCNQKGAFLVEKTSTEVQCKGGNVCVQAQDRYYNSSCSKWACVPCRVRS
Cd5l expression [5]: significantly suppressed
